Results as given in ChEMBL document CHEMBL1201862, “PubChem BioAssay data set” (2004).
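Values below derive from 48-hour exposures of cells grown in 96-well plates, with endpoints linearly interpolated between the two concentrations bracketing the appropriate inhibition level. GI50 marks 50% less growth.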 The source made the active and inactive calls. No stated cut-off is given here; in the data, active = GI50 up to about 1.1 µM and inactive = higher.

Columns and labels:
Experiment in all cases: inhibition of tumour cell growth, NCI panel, 48 h
M19-MEL = tested on: M19-MEL
KM-20L2 = tested on: KM-20L2
HL-60 = tested on: HL-60
A498 = tested on: A498
MCF7 = tested on: MCF7
LOX IMVI = tested on: LOX IMVI
DLD-1 = tested on: DLD-1
SNB-78 = tested on: SNB-78
EKVX = tested on: EKVX
DMS-273 = tested on: DMS-273
XF498 = tested on: XF498
ACHN = tested on: ACHN
SR = tested on: SR
DMS-114 = tested on: DMS-114
CAKI-1 = tested on: CAKI-1
TK-10 = tested on: TK-10
M14 = tested on: M14
PC-3 = tested on: PC-3
MDA-MB-435 = tested on: MDA-MB-435
HOP-18 = tested on: HOP-18

| SMILES | GI50 (M19-MEL) | GI50 (KM-20L2) | GI50 (HL-60) | GI50 (A498) | GI50 (MCF7) | GI50 (LOX IMVI) | GI50 (DLD-1) | GI50 (SNB-78) | GI50 (EKVX) | GI50 (DMS-273) | GI50 (XF498) | GI50 (ACHN) | GI50 (SR) | GI50 (DMS-114) | GI50 (CAKI-1) | GI50 (TK-10) | GI50 (M14) | GI50 (PC-3) | GI50 (MDA-MB-435) | GI50 (HOP-18) |
| --- | --- | --- | --- | --- | --- | --- | --- | --- | --- | --- | --- | --- | --- | --- | --- | --- | --- | --- | --- | --- |
| CCCCCCSc1nc(N)nc2nc[nH]c12 | 47.1 µM (inactive) | 39.7 µM (inactive) | 19.6 µM (inactive) | 26.9 µM (inactive) | 30.5 µM (inactive) | 26.1 µM (inactive) | 33.7 µM (inactive) | 38.5 µM (inactive) | 60.1 µM (inactive) | 43.7 µM (inactive) | 32.5 µM (inactive) |  |  |  |  |  |  |  |  |  |
| N/N=C(\C(=O)Nc1c(Cl)cc([N+](=O)[O-])cc1Cl)C(c1cnc2ccc([N+](=O)[O-])cc2n1)[N+](=O)[O-] (stereo not drawn) | > 100 µM (inactive) | > 100 µM (inactive) | 28.1 µM (inactive) | > 100 µM (inactive) |  | > 100 µM (inactive) | > 100 µM (inactive) | 40.4 µM (inactive) | 37.8 µM (inactive) | 38.6 µM (inactive) | > 100 µM (inactive) | > 100 µM (inactive) | > 100 µM (inactive) | 36.3 µM (inactive) | 66.1 µM (inactive) | > 100 µM (inactive) |  |  |  |  |
| CN1C(=O)CC(=O)N1/C(=C/c1ccccc1)c1ccccc1 |  |  |  |  | 47.2 µM (inactive) | 17 µM (inactive) |  |  | > 100 µM (inactive) |  |  | 54.1 µM (inactive) | 76.4 µM (inactive) |  | 23.7 µM (inactive) | 33 µM (inactive) | 65.8 µM (inactive) | 32 µM (inactive) | 66.8 µM (inactive) |  |
| CCOC(=O)C1(C(F)(F)F)N=C(CC)OC(N2CCOCC2)=N1 (stereo not drawn) |  |  | > 100 µM (inactive) |  | > 100 µM (inactive) | > 100 µM (inactive) |  |  | > 100 µM (inactive) |  |  | > 100 µM (inactive) | > 100 µM (inactive) |  | > 100 µM (inactive) | > 100 µM (inactive) | > 100 µM (inactive) | > 100 µM (inactive) | > 100 µM (inactive) |  |
| O=C(O)c1ccc(C(=O)O)c2c(C(=O)O)ccc(C(=O)O)c12 |  |  |  | > 100 µM (inactive) | > 100 µM (inactive) | > 100 µM (inactive) |  |  | > 100 µM (inactive) |  |  | > 100 µM (inactive) | > 100 µM (inactive) |  | > 100 µM (inactive) | > 100 µM (inactive) | > 100 µM (inactive) | > 100 µM (inactive) | > 100 µM (inactive) |  |
| COC(=O)C1C(O)C(C)C(O)C(C)(O)/C=C\C=C(C)C(=O)Nc2c(C)c(OC(C)=O)c3c(c2O)C(=O)C(C)=C2OCOC(=C23)C(C)=CC(C)(O)C(O)C(C)C1OC(C)=O (stereo not drawn) | 17.3 µM (inactive) | 33.7 µM (inactive) | 28.4 µM (inactive) | 49.8 µM (inactive) | 18 µM (inactive) | 20.4 µM (inactive) | 24.7 µM (inactive) | 44.6 µM (inactive) | 34.1 µM (inactive) | 44 µM (inactive) |  |  |  | 16.1 µM (inactive) | 47.5 µM (inactive) |  |  |  |  | 93.1 µM (inactive) |
| O=C(O)C(F)(F)C(F)(F)C(F)(F)C(F)(F)C(F)(F)C(F)(F)C(F)(F)C(F)(F)F |  |  | 25.2 µM (inactive) | 38.3 µM (inactive) | 57 µM (inactive) | 42.3 µM (inactive) |  |  | 48 µM (inactive) |  |  | 65.3 µM (inactive) |  |  | > 100 µM (inactive) | > 100 µM (inactive) | 28.1 µM (inactive) | 42.1 µM (inactive) | 48.3 µM (inactive) |  |
| COc1ccc(/C(Cl)=C(\C=O)c2ccc(F)cc2)cc1 | 15 µM (inactive) | 6.87 µM (inactive) | 2.72 µM (inactive) | 17.4 µM (inactive) |  | 7.03 µM (inactive) | 8.17 µM (inactive) | 7.53 µM (inactive) | 16.9 µM (inactive) | 14.9 µM (inactive) |  | 6.14 µM (inactive) |  | 7.55 µM (inactive) | 8.18 µM (inactive) | 33.1 µM (inactive) | 12.9 µM (inactive) |  |  | 6.58 µM (inactive) |
| Cc1ccnc2nc(N)ccc12 |  |  | > 100 µM (inactive) | > 100 µM (inactive) |  |  |  |  | > 100 µM (inactive) |  |  | > 100 µM (inactive) | > 100 µM (inactive) |  | > 100 µM (inactive) | > 100 µM (inactive) | > 100 µM (inactive) | > 100 µM (inactive) | > 100 µM (inactive) |  |
| COc1c2c(cc3c(CCc4ccccc4)cc(=O)oc13)CCC(C)(C)O2 | > 100 µM (inactive) | > 100 µM (inactive) | > 100 µM (inactive) |  |  | > 100 µM (inactive) | > 100 µM (inactive) |  | > 100 µM (inactive) | > 100 µM (inactive) |  | > 100 µM (inactive) | > 100 µM (inactive) | > 100 µM (inactive) |  | > 100 µM (inactive) | > 100 µM (inactive) |  |  |  |
| C[S+](C)CC1OC(n2cnc3c(N)ncnc32)C(O)C1O (stereo not drawn) | > 179 µM (inactive) | > 225 µM (inactive) | > 225 µM (inactive) | > 225 µM (inactive) | > 225 µM (inactive) | > 225 µM (inactive) | > 225 µM (inactive) | > 225 µM (inactive) | > 225 µM (inactive) | > 225 µM (inactive) | > 225 µM (inactive) |  |  | > 225 µM (inactive) | > 225 µM (inactive) |  |  |  |  |  |
| CCOC(=O)C(=O)NC12CC3CC(CC(C3)C1)C2 |  | > 100 µM (inactive) | > 100 µM (inactive) | > 100 µM (inactive) |  | 0.208 µM (active) | > 100 µM (inactive) |  | > 100 µM (inactive) | > 100 µM (inactive) | > 100 µM (inactive) | > 100 µM (inactive) |  | > 100 µM (inactive) | > 100 µM (inactive) | > 100 µM (inactive) | > 100 µM (inactive) |  |  | > 100 µM (inactive) |
| CC=C/C=C/[C@@H]1O[C@](O)([C@H](CC)C(=O)NC/C=C/C=C(\C)[C@@H](OC)[C@@H](C)[C@@H]2O[C@H](/C=C/C=C/C=C(\C)C(=O)c3c(O)cc[nH]c3=O)[C@H](O)[C@@H]2O)[C@H](O)[C@H](O)C1(C)C |  |  | 93.5 µM (inactive) | > 100 µM (inactive) | > 100 µM (inactive) |  |  |  | > 100 µM (inactive) |  |  | > 100 µM (inactive) | > 100 µM (inactive) |  |  | > 100 µM (inactive) | > 100 µM (inactive) | > 100 µM (inactive) | > 100 µM (inactive) |  |
| O=C(O)C(O)Cc1ccccn1 (stereo not drawn) |  |  | > 100 µM (inactive) | > 100 µM (inactive) | > 100 µM (inactive) | > 100 µM (inactive) |  |  | > 100 µM (inactive) |  |  | > 100 µM (inactive) | > 100 µM (inactive) |  | > 100 µM (inactive) | > 100 µM (inactive) | > 100 µM (inactive) | > 100 µM (inactive) | > 100 µM (inactive) |  |
| O=S1(=O)CC#CC[C@@H](CO)[C@@H](CO)CC#CC1 | 47.1 µM (inactive) | > 100 µM (inactive) | 53.7 µM (inactive) |  |  | 69.3 µM (inactive) | > 100 µM (inactive) | > 100 µM (inactive) | > 100 µM (inactive) |  | > 100 µM (inactive) | > 100 µM (inactive) | 38.7 µM (inactive) |  |  | > 100 µM (inactive) | 40.1 µM (inactive) |  |  |  |
| Cc1ccc2c3c1[C@@H]1O[C@@H]1c1cccc(c1-3)[C@@H]1O[C@H]21 |  |  |  | 19.1 µM (inactive) | 4.66 µM (inactive) | 2.4 µM (inactive) |  |  | 16.1 µM (inactive) |  |  | 12.7 µM (inactive) | 11.5 µM (inactive) |  | 16.4 µM (inactive) | 18.2 µM (inactive) | 11 µM (inactive) | 15 µM (inactive) | 14.1 µM (inactive) |  |
| O=C1C=C/C(=C/[C@H]2SSC=C[C@]23C=CC(=O)C3)C1 |  |  | 2.38 µM (inactive) | 17.6 µM (inactive) | 5.79 µM (inactive) | 10.3 µM (inactive) |  |  | 17.5 µM (inactive) |  |  | 18.1 µM (inactive) | 1.75 µM (inactive) |  | 9.91 µM (inactive) | 24.7 µM (inactive) | 17.2 µM (inactive) | 24.7 µM (inactive) | 17.7 µM (inactive) |  |
| CC[C@H]1CN2CCc3cc(OC)c(OC)cc3[C@@H]2C[C@@H]1C[C@H]1NCCc2cc(O)c(OC)cc21 | 0.0253 µM (active) | 0.025 µM (active) | 0.025 µM (active) |  | 0.025 µM (active) |  | 0.0277 µM (active) |  | 0.025 µM (active) | 0.0344 µM (active) |  |  | < 0.01 µM (active) | 0.025 µM (active) | 0.025 µM (active) |  |  |  |  |  |
| CC(=C(c1ccccc1)c1ccccc1)N1C(=O)CC(=O)N1C |  |  |  |  | 43.8 µM (inactive) | 17 µM (inactive) |  |  | 53.3 µM (inactive) |  |  | > 100 µM (inactive) |  |  | 21.1 µM (inactive) | 43.3 µM (inactive) | 24.7 µM (inactive) | 21.9 µM (inactive) | 41.1 µM (inactive) |  |
| CN(C)C(=O)C(F)(F)C(c1ccc(Br)cc1)C1C(=O)N(C)C(=O)N(C)C1=O (stereo not drawn) |  |  |  | > 100 µM (inactive) | > 100 µM (inactive) | > 100 µM (inactive) |  |  | > 100 µM (inactive) |  |  | > 100 µM (inactive) |  |  | > 100 µM (inactive) | > 100 µM (inactive) | > 100 µM (inactive) | > 100 µM (inactive) | > 100 µM (inactive) |  |
| COC(=O)C(Cc1ccc(N(C)C)cc1)(NC(=O)c1ccccc1)P(=O)(OC)OC (stereo not drawn) | > 100 µM (inactive) | > 100 µM (inactive) | > 100 µM (inactive) | > 100 µM (inactive) |  | > 100 µM (inactive) |  |  | > 100 µM (inactive) | > 100 µM (inactive) | > 100 µM (inactive) | > 100 µM (inactive) | > 100 µM (inactive) | > 100 µM (inactive) | > 100 µM (inactive) | > 100 µM (inactive) | > 100 µM (inactive) |  |  |  |
| CN(C1=NCCO1)c1cccc2ccccc12 |  |  | > 10 µM (inactive) | > 10 µM (inactive) | > 10 µM (inactive) | > 10 µM (inactive) |  |  | > 10 µM (inactive) |  |  | > 10 µM (inactive) | > 10 µM (inactive) |  | > 10 µM (inactive) | > 10 µM (inactive) | > 10 µM (inactive) | > 10 µM (inactive) | > 10 µM (inactive) |  |
